In patent EP2785358B1, “INSULIN-MIMETICS AS THERAPEUTIC ADJUNCTS FOR BONE REGENERATION” (priority 2011, dated 2013):
Values joined by “and” are separate entries in the source; they are usually repeats but may differ in a detail not shown here. Identical values can stand only once. Like-named read-outs stand apart in the source and are kept apart here. Marks after values point to notes of the source that are not given here.

Experiments:
femur fractures [1] = conditions: zinc chloride 3.0 mg/kg
Excerpt: The fractured femora were resected at seven days post-fracture, decalcified, dehydrated, embedded in paraffin, and sectioned using standard histological techniques. Sections were stained with Masson's Trichrome (Accustain™ Trichrome Staining kit, Sigma Diagnostics, St. Louis, MO) for histological observation using an Olympus BH2-RFCA microscope (Olympus Optical Co., Ltd., Shinjuku-ku, Tokyo, Japan). Digital images were collected using a Nikon DXM1200F digital camera (Nikon, Tokyo, Japan). Cartilage, new bone, and total callus area were measured from the digital images using Image-Pro Plus software (version 5, Media Cybernetics, Inc., Silver Spring, MD). Total cartilage and new bone area were normalized to total callus area and expressed as the percent area. Two independent reviewers were used to minimize inconsistencies.
This includes dehydration, soaking in Xylenes, and finally pre-embedding in a layer of Polymethylmethacrylate (PMMA). After embedding in pure PMMA and allowed to solidify in a hot water bath, slides were sectioned from the PMMA blocks, polished, and stained with a combination of Stevenel's blue and Van Gieson picro-fuchsin (SVG). Histological images of fracture calluses were obtained using an Olympus SZX12 upright microscope (Olympus Optical Co, LTD, Japan) connected via a CCD camera (Optronics, Goleta, California) to a personal computer and analyzed with the Bioquant software package (Biometrics, Inc, Nashville, TN). Parameters that were compared include a) callus area, b) percent calcified tissue area, and c) percent cartilage area. Limitations of this procedure include production of slides with high thicknesses, due to the difficulties associated with sectioning PMMA. This limits the number of possible sections that may be cut for staining in addition to analysis of cellular morphology, due to overlapping layers of cells.

[2] = rat, in vivo
Experimental: Doses of ZnCl2 were not based on each animal's body weight, but on a lower theoretically tolerable dose for a 290-gram BB Wistar rat, which would not elicit heavy metal poisoning or behavioral changes. […] A 0.1 ml volume of the ZnCl2 solution was administered locally via a single injection into the marrow space for each dose examined.
However, animals amongst treatment groups were age and sex matched for each experiment.

femur fractures [3] = system: femur fractures; set-up: Percent Effective Shear Modulus / Percent Effective Shear Stress: scale not given: direction of the effect not stated beside the values; conditions: for Effective Shear Modulus / Effective Shear Stress / Maximum Torque to Failure / Maximum Torsional Rigidity / Percent Effective Shear Modulus / Percent Effective Shear Stress / Percent Maximum Torque to Failure / Percent maximum torsional rigidity: no carrier, 4 weeks post-fracture; for effective shear stress, times higher than control: four weeks post-fracture
Experimental: Zinc Chloride [(ZnCl2), Sigma Aldrich, St. Louis, MO] mixed with a buffer was injected into the intramedullary canal prior to fracture. The buffer consisted of sodium acetate, sodium chloride methyl hydroxybenzoate, and zinc chloride. Doses of 1.0 mg/kg and 3.0 mg/kg zinc chloride were tested and administered at a volume of 0.1mL.
Fractured and contralateral femora were resected at three and four weeks post-fracture. Femora were cleaned of soft tissue and the intramedullary rod was removed. Samples were wrapped in saline (0.9% NaCl) soaked gauze and stored at -20 °C. Prior to testing, all femora were removed from the freezer and allowed to thaw to room temperature for three to four hours. The proximal and distal ends of the fractured and contralateral femora were embedded in ¾ inch square nuts with Field's Metal, leaving an approximate gauge length of 18 mm (Figure 2). After measuring callus, gauge length and femur dimensions, torsional testing was conducted using a servohydraulics machine (MTS Systems Corp., Eden Prairie, MN) with a 20 Nmm reaction torque cell (Interface, Scottsdale, AZ) and tested to failure at a rate of 2.0 deg/sec. The maximum torque to failure and angle to failure were determined from the force to angular displacement data.
Maximum torque to failure and maximum torsional rigidity are considered extrinsic properties while shear modulus and maximum shear stress are considered intrinsic properties. […] Maximum torsional rigidity is a function of the maximum torque to failure, gauge length (distance of the exposed femur between the embedded proximal and distal end) and angular displacement. Maximum shear stress is a function of the maximum torque to failure, maximum radius within the mid-diaphyseal region and the polar moment of inertia. The polar moment of inertia was calculated by modeling the femur as a hollow ellipse.
In order to compare the biomechanical parameters between different treatment groups, the data was normalized by dividing each fractured femur value by its corresponding intact, contralateral femur value (Figure 2). Normalization was used to minimize biological variability due to differences in age and weight among rats.
Zinc chloride (ZnCl2), Sigma Aldrich, St. Louis, MO, mixed with sterile water at various doses with or without a calcium sulfate carrier, were injected into the intramedullary canal prior to fracture. Doses of ZnCl2 were not based on each animal's body weight, but on a lower theoretically tolerable dose for a 290-gram BB Wistar rat, which would not elicit heavy metal poisoning or behavioral changes. This weight is over 50 grams lower than the average weight of non-diabetic BB Wistar rats at an age of approximately 90 days (the age of investigation in this study).

femur fractures [4] = conditions: no carrier
Experimental: Under the same anesthesia as described above, the rats were positioned prone and lateral and anteroposterior (AP) radiographs of their femurs were obtained. […] Exposures were for 30 seconds at 55 kVp. Magnified radiographs were obtained of resected femurs. Qualitative analysis was performed on all radiographic sample at four weeks post-fracture. […] Treatment group averages were computed to estimate healing at 4 weeks post-fracture.

[5] = ZnCl2 0.1 mg/kg local, normalized to intact femur
[6] = ZnCl2 1.0 mg/kg local, normalized to intact femur
[7] = ZnCl2 3.0 mg/kg local, normalized to intact femur, 3 mg/kg
[8] = ZnCl2 3 mg/kg, four weeks, normalized to intact femur, 3 mg/kg
[9] = ZnCl2 6.0 mg/kg local, normalized to intact femur
[10] = ZnCl2 10.0 mg/kg local, normalized to intact femur

For [Cl-].[Cl-].[Zn+2] [ZnCl2, Zinc Chloride], the “% Bone” value (femur fractures [1]; 7 Day) was 18.92 ± 5.97 ^∗ %, the “% Cartilage” value (femur fractures [1]; 7 Day) was 4.64 ± 3.41% and the “% Bone” value (femur fractures [1]; 10 Day) was 21.31 ± 5.40%. For the same compound, the “% Cartilage” value (femur fractures [1]; 10 Day) was 12.79 ± 3.02%, the “% Bone” value (femur fractures [1]; 21 Day) was 24.47 ± 3.53% and the “% Cartilage” value (femur fractures [1]; 21 Day) was 11.57 ± 5.53%. For the same compound, the “% Weight gain” value ([2]; 0.1 mg/kg) was 15.3±11.5%, the “Blood Glucose 12 Hours Post-Surgery” value ([2]; 0.1 mg/kg) was 87.0±7.1 ^a mg/dl and the “% Weight gain” value ([2]; 1 mg/kg) was 11.0±9.4%. The “Blood Glucose 12 Hours Post-Surgery” value ([2]; 1 mg/kg) was 99.3±3.1 ^b mg/dl, the “% Weight gain” value ([2]; 3 mg/kg) was 6.9±11.7% and the “Blood Glucose 12 Hours Post-Surgery” value ([2]; 3 mg/kg) was 105.0±4.4 ^b mg/dl. The “% Weight gain” value ([2]; 6 mg/kg) was 4.6±2.3%, the “Blood Glucose 12 Hours Post-Surgery” value ([2]; 6 mg/kg) was 88.0±4.3 ^a mg/dl and the “% Weight gain” value ([2]; 10 mg/kg) was 4.2±2.0%. The “Blood Glucose 12 Hours Post-Surgery” value ([2]; 10 mg/kg) was 87. 7±8. 5 ^a mg/dl, the “Effective Shear Modulus” value (femur fractures [3]; ZnCl2 0.1 mg/kg local) was 1.7×10^3 ± 3.3×10^2 MPa and the “Effective Shear Stress” value (femur fractures [3]; ZnCl2 0.1 mg/kg local) was 61 ± 14 MPa. The “Maximum Torque to Failure” value (femur fractures [3]; ZnCl2 0.1 mg/kg local) was 252 ± 13 Nmm, the “Maximum Torsional Rigidity” value (femur fractures [3]; ZnCl2 0.1 mg/kg local) was 2.1×10^4 ± 4.2×10^3 Nmm^2/rad and the “Percent Effective Shear Modulus” value (femur fractures [3]; [5]) was 34 ± 4%. For the same compound, the “Percent Effective Shear Stress” value (femur fractures [3]; [5]) was 33 ± 14%, the “Percent Maximum Torque to Failure” value (femur fractures [3]; [5]) was 57 ± 12% and the “Percent maximum torsional rigidity” value (femur fractures [3]; [5]) was 87 ± 14%. The “Effective Shear Modulus” value (femur fractures [3]; ZnCl2 1.0 mg/kg local) was 9.7×10^2 ± 3.6×10^2 MPa, the “Effective Shear Stress” value (femur fractures [3]; ZnCl2 1.0 mg/kg local) was 44 ± 15 MPa and the “Maximum Torque to Failure” value (femur fractures [3]; ZnCl2 1.0 mg/kg local) was 281 ± 86 Nmm. The “Maximum Torsional Rigidity” value (femur fractures [3]; ZnCl2 1.0 mg/kg local) was 2.2×10^4 ± 2.7×10^3 Nmm^2/rad, the “Percent Effective Shear Modulus” value (femur fractures [3]; [6]) was 32 ± 15% and the “Percent Effective Shear Stress” value (femur fractures [3]; [6]) was 18 ± 8%. For the same compound, the “Percent Maximum Torque to Failure” value (femur fractures [3]; [6]) was 65 ± 29%, the “Percent maximum torsional rigidity” value (femur fractures [3]; [6]) was 55 ± 14% and the “effective shear stress, times higher than control” value (femur fractures [3]; ZnCl2 1.0 mg/kg) was 1.6 x. For the same compound, the “Effective Shear Modulus” value (femur fractures [3]; ZnCl2 3.0 mg/kg local) was 1.3×10^3 ± 6.4×10^2 MPa, the “Effective Shear Stress” value (femur fractures [3]; ZnCl2 3.0 mg/kg local) was 55 ± 21^∗ MPa and the “Maximum Torque to Failure” value (femur fractures [3]; ZnCl2 3.0 mg/kg local) was 369 ± 74 Nmm. For the same compound, the “Maximum Torsional Rigidity” value (femur fractures [3]; ZnCl2 3.0 mg/kg local) was 3.1×10^4 ± 1.1×10^4 Nmm^2/rad, the “Percent Effective Shear Stress” value (femur fractures [3]; ZnCl2 3.0 mg/kg local, normalized to intact femur) was 27 ± 17% and the “Percent Effective Shear Modulus” value (femur fractures [3]; [7]) was 39.0% and 36 ± 10^∗ Percent. The “Percent Maximum Torque to Failure” value (femur fractures [3]; [7]) was 82.0% and 82 ± 25^∗ Percent, the “Percent maximum torsional rigidity” value (femur fractures [3]; [7]) was 97.0% and 97 ± 55^∗ Percent and the “effective shear stress, times higher than control” value (femur fractures [3]; ZnCl2 3.0 mg/kg) was 2.2 x. For the same compound, the “percent effective shear modulus, times higher than control group” value (femur fractures [3]; [8]) was 9.0 x and 8.0 x, the “percent maximum torque to failure, times higher than control group” value (femur fractures [3]; [8]) was 2.04 x and 2.0 x and the “percent torsional rigidity, times higher than control group” value (femur fractures [3]; [8]) was 3.85 x and 3.8 x. The “Effective Shear Modulus” value (femur fractures [3]; ZnCl2 6.0 mg/kg local) was 1.1×10^3 ± 7.5×10^2 MPa, the “Effective Shear Stress” value (femur fractures [3]; ZnCl2 6.0 mg/kg local) was 32 ± 25^∗ MPa and the “Maximum Torque to Failure” value (femur fractures [3]; ZnCl2 6.0 mg/kg local) was 276 ± 190 Nmm. The “Maximum Torsional Rigidity” value (femur fractures [3]; ZnCl2 6.0 mg/kg local) was 2.9×10^4 ± 1.6×10^4 Nmm^2/rad, the “Percent Effective Shear Modulus” value (femur fractures [3]; [9]) was 18 ± 12% and the “Percent Effective Shear Stress” value (femur fractures [3]; [9]) was 15 ± 10%. For the same compound, the “Percent Maximum Torque to Failure” value (femur fractures [3]; [9]) was 38 ± 20%, the “Percent maximum torsional rigidity” value (femur fractures [3]; [9]) was 62 ± 35% and the “Percent shear modulus, times greater than untreated saline group” value (femur fractures [3]; ZnCl2 10.0 mg/kg (high dose), four weeks, normalized to intact femur) was 8.8 times. For the same compound, the “Effective Shear Modulus” value (femur fractures [3]; ZnCl2 10.0 mg/kg local) was 3.0×10^3 ± 1.9×10^3∗ MPa, the “Effective Shear Stress” value (femur fractures [3]; ZnCl2 10.0 mg/kg local) was 62 ± 30 MPa and the “Maximum Torque to Failure” value (femur fractures [3]; ZnCl2 10.0 mg/kg local) was 254 ± 36 Nmm. The “Maximum Torsional Rigidity” value (femur fractures [3]; ZnCl2 10.0 mg/kg local) was 3.6×10^4 ± 2.5×10^4 Nmm^2/rad, the “Percent Effective Shear Stress” value (femur fractures [3]; [10]) was 27 ±11% and the “Percent Maximum Torque to Failure” value (femur fractures [3]; [10]) was 41 ± 8%. The “Percent maximum torsional rigidity” value (femur fractures [3]; [10]) was 73 ± 44%, the “Percent Effective Shear Modulus” value (femur fractures [3]; ZnCl2 10.0 mg/kg local, normalized to intact femur, 10 mg/kg) was 36.0% and 39 ± 23^∗ Percent and the “time in which fracture healing resolved” value (femur fractures [3]; ZnCl2 applied directly to the fracture site, instead of average eight to ten weeks in standard rat femur fracture model) was “four to five weeks”. For the same compound, the “Radiographic scoring, 4 Weeks Post-Fracture (# of cortices bridged)” value (femur fractures [4]; ZnCl2 1.0 mg/kg local) was 3.0 ± 0.6 (n=3) and the “Radiographic scoring, 4 Weeks Post-Fracture (# of cortices bridged)” value (femur fractures [4]; ZnCl2 3.0 mg/kg local) was 3.3 ± 0.6^∗ (n=3).
